Values of other authors as cited in US11865247B2, “Inhalers and related methods” (Norton (Waterford) Limited, priority 2017, dated 2024).

SMILES: FCC(F)(F)F [HFA134a, 1,1,1,2-tetrafluoroethane]
- surface tension (as liquid at 25° C.): about 8 mN/m
- vapor pressure (at 20° C.): 572 kpa
